# Data reported in patent publication US20230104487A1, “11-(4-CHLOROPHENYL)-4-(2,3-DIHYDRO-1H-INDOLE-1-CARBONYL)-3,11-DIMETHYL-5,10,DIOXATRICYCLO[7.4.0.0,2,6,]TRIDECA-1,3,6,8-TETRAEN-13-ONE AND DERIVATIVES AS DESTABILIZER OF CRY1 FOR THE TREATMENT OF CIRCADIAN RHYTHM ASSOCIATED DISEASES AND DISORDERS” (KOC UNIVERSITESI, priority 2019, published 2023).
# pEC50: −log10 of the molar value. “Also recorded” adds a separate entry of the source.
# What was measured:
# U2-OS cells = experiment: Cell cytotoxicity test (MTT); type: cell-based, human; conditions: dose dependent
# Method: Human osteosarcoma U2-OS cell lines were used for the cytotoxicity assay. Cells were seeded in triplicate to clear 96-well plates with 4000 cells/well then grown for 48 h. Cells were treated with molecules at desired concentrations (final DMSO concentration 0.5%) in DMEM. Cells were incubated with molecules for 48 h. Cell viability was measured by adding tetrazolium dye 3-[4,5-dimethylthiazol-2-yl]-2,5 diphenyl tetrazolium bromide (MTT) which is converted to insoluble purple color formazan as a result of the mitochondrial activity. To measure the purple color after incubating cells with MTT reagent medium was replaced with DMSO:EtOH (50:50) mixture for 4 hours and absorbance of wells were measured at 570 nm by the spectrophotometer. Cells treated with 5% final DMSO concentration (known as toxic to cells) as […] controls.
# Initially, toxicity of selected molecules was assessed by MTT using immortalized human osteosarcoma (U2-OS) cells at concentrations of 20 μM, 10 μM and, 2.5 μM. Molecules with relative cell viability less than 90% at 2.5 μM were eliminated. […] In this assay the effect of the 14 molecules were measured according to the CRYL::LUC decay rate. […] Then cells were treated with cycloheximide (CHX) to inhibit the protein synthesis and bioluminescence was recorded for 18 h. […]
# U2-OS Bmal1-dLuc cells = experiment: Real-time monitoring of circadian rhythm, U2-OS Bmal1-dLuc; type: cell-based, human
# Method: This assay was performed with two different equipment: Synergy H1 (BioTek) with 96-well plate and LumiCycle luminometer (Actimetrics) with 35 mm plates. Initial screening of molecules to determine their effect on the circadian period was performed in 96-well plate via Synergy H1. Clear 35-mm plates are used in LumiCycle luminometer which provides high resolution data describing the circadian oscillation. For 96-plate tests, 50000 U2-OS Bmal1-dLuc cells were seeded on an opaque 96-well plate and cultured overnight. Next day cells were reset by adding dexamethasone (DXM) ([…] final) for 2 h. Then medium is changed to bioluminescence recording media which contains the following in 1 L: DMEM powder (sigma D-2902, 10×1 L), 0.35 gr sodium bi-carbonate (tissue culture grade, sigma S5761), 3.5 gr D (+) glucose powder (tissue culture grade, sigma G7021), 10 mL 1M HEPES buffer (Gibco 15140-122), 2.5 mL Pen/Strep (100 ug/ml), 50 mL 5% FBS and up to 1 L sterile milliQ water. Luciferin is added freshly with 0.1 mM final concentration. Molecules were added to the bioluminescence recording media at desired concentration (0.5% final DMSO concentration). Plates were sealed with optically clear film to prevent evaporation and gas exchange thereby to maintain homeostasis of the cells.
# Luminescence values were recorded at 32° C. for each 30 minutes with 15 seconds integration time via Synergy H1 luminometer for a week. For LumiCycle, 400×10^3 U2-OS Bmal1-dLuc or NIH3T3 mPer2-dLuc cells were seeded to 35 mm plates and then procedure given above was followed with a change in the last step. Plates were sealed with vacuum grease and placed to LumiCycle. Each plate was recorded continuously every 10 minutes for 70 seconds at 37° C. via photomultiplier tubes. Period and amplitude data were obtained from LumiCycle Analysis software. To detect the effect of FORMULA I in the absence of CRYs, Cry1^−/−/Cry2^−/− mouse embryonic fibroblasts (CRYDKO MEFs) transiently transfected with pGL3-Per2-Luc (luciferase reporter) were used. 3×10^5 CRYDKO cells were seeded in 35 mm clear plates. Next day, cells were transfected with 4000 ng pGL3-Per2-Luc via Fugene6 transfection reagent according to the manufacturer's instruction. In short, 3:1 ratio of Fugene6 in μl against transfected DNA amount in μg was kept in transfections. 72 h after transfection cells were synchronized with DXM for two hours. Then, medium was changed with lumicycle medium having DMSO or molecule, sealed with vacuum grease, and placed to LumiCycle.
smiles,measurement,setting,value
"Cc1c(C(=O)N2CCc3ccccc32)oc2ccc3c(c12)C(=O)CC(C)(c1ccc(Cl)cc1)O3 (centres unmarked) [FORMULA I, 11-(4-chlorophenyl)-4-(2,3-dihydro-1H-indole-1-carbonyl)-3,11-dimethyl-5,10,dioxatricyclo[7.4.0.0,2,6,]trideca-1,3,6,8-tetraen-13-one]",toxicity on U2-OS cells,U2-OS cells,no effect on the stability of LUC and any toxic effect
same,pEC50,"U2-OS Bmal1-dLuc cells; Homo sapiens, U2OS, U2-OS Bmal1-dLuc, read-out: EC50 of period lengthening and rhythm dampening",~5.19
same,activity / dose responsive effect on circadian rhythm,U2-OS Bmal1-dLuc cells; U2-OS Bmal1-dLuc,showed the best dose responsive effect
same,effect on amplitude of the rhythm,U2-OS Bmal1-dLuc cells; dose-dependent,dampened the rhythm
same,effect on period of circadian rhythm,U2-OS Bmal1-dLuc cells; dose-dependent,significantly lengthened the period; also recorded: lengthened the circadian rhythm dose dependently
